Data: ChEMBL document CHEMBL5678812, “Inhibitors of p21-activated kinases (PAKs)” (J Med Chem, 2015)
Blank lines part the entries; values can stand above or below the molecule they belong to.

Columns and labels:
[1] = molecular target: cAMP-dependent protein kinase (PKA) (Homo sapiens) (UniProt P22694+P17612+P22612); assay: Inhibition of PKA (unknown origin) at 0.1 uM relative to control; assay type: protein assay
TAK1/TAB1 (Homo sapiens) = TAK1/TAB1 (Homo sapiens) (UniProt Q15750+O43318); assay: Inhibition of TAK1-TAB1 (unknown origin) at 0.1 uM relative to control; assay type: protein-complex assay
[2] = molecular target: Phosphatidylinositol 4,5-bisphosphate 3-kinase catalytic subunit gamma isoform (Homo sapiens) (UniProt P48736); assay: Inhibition of PI3Kgamma (unknown origin) at 0.1 uM relative to control
[3] = molecular target: Serine/threonine-protein kinase Chk2 (Homo sapiens) (UniProt O96017); assay: Inhibition of CHK2 (unknown origin) at 0.1 uM relative to control
[4] = molecular target: NUAK family SNF1-like kinase 1 (Homo sapiens) (UniProt O60285); assay: Inhibition of ARK5 (unknown origin) at 0.1 uM relative to control
[5] = molecular target: Serine/threonine-protein kinase NLK (Homo sapiens) (UniProt Q9UBE8); assay: Inhibition of NLK (unknown origin) at 0.1 uM relative to control
[6] = molecular target: Leucine-rich repeat serine/threonine-protein kinase 2 (Homo sapiens) (UniProt Q5S007); assay: Inhibition of LRRK2 (unknown origin) at 0.1 uM relative to control
[7] = molecular target: Tyrosine-protein kinase Fes/Fps (Homo sapiens) (UniProt P07332); assay: Inhibition of Fes (unknown origin) at 0.1 uM relative to control
[8] = molecular target: Homeodomain-interacting protein kinase 1 (Homo sapiens) (UniProt Q86Z02); assay: Inhibition of HIPK1 (unknown origin) at 0.1 uM relative to control
[9] = molecular target: Homeodomain-interacting protein kinase 2 (Homo sapiens) (UniProt Q9H2X6); assay: Inhibition of HIPK2 (unknown origin) at 0.1 uM relative to control
[10] = molecular target: PAS domain-containing serine/threonine-protein kinase (Homo sapiens) (UniProt Q96RG2); assay: Inhibition of PASK (unknown origin) at 0.1 uM relative to control
[11] = molecular target: BDNF/NT-3 growth factors receptor (Homo sapiens) (UniProt Q16620); assay: Inhibition of TrkB (unknown origin) at 0.1 uM relative to control
[12] = molecular target: Dual specificity tyrosine-phosphorylation-regulated kinase 1A (Homo sapiens) (UniProt Q13627); assay: Inhibition of DYRK1A (unknown origin) at 0.1 uM relative to control
[13] = molecular target: Non-receptor tyrosine-protein kinase TYK2 (Homo sapiens) (UniProt P29597); assay: Inhibition of TYK2 (unknown origin) at 0.1 uM relative to control
[14] = molecular target: Serine/threonine-protein kinase pim-2 (Homo sapiens) (UniProt Q9P1W9); assay: Inhibition of PIM2 (unknown origin) at 0.1 uM relative to control
[15] = molecular target: Tyrosine-protein kinase receptor UFO (Homo sapiens) (UniProt P30530); assay: Inhibition of Axl (unknown origin) at 0.1 uM relative to control
[16] = molecular target: Phosphorylase b kinase gamma catalytic chain, liver/testis isoform (Homo sapiens) (UniProt P15735); assay: Inhibition of PhKgamma2 (unknown origin) at 0.1 uM relative to control
[17] = molecular target: Dual specificity protein kinase CLK1 (Homo sapiens) (UniProt P49759); assay: Inhibition of CLK1 (unknown origin) at 0.1 uM relative to control
[18] = molecular target: Rho-associated protein kinase 2 (Homo sapiens) (UniProt O75116); assay: Inhibition of ROCK2 (unknown origin) at 0.1 uM relative to control
[19] = molecular target: Serine/threonine-protein kinase 3 (Homo sapiens) (UniProt Q13188); assay: Inhibition of MST2 (unknown origin) at 0.1 uM relative to control
[20] = molecular target: SRSF protein kinase 1 (Homo sapiens) (UniProt Q96SB4); assay: Inhibition of SRPK1 (unknown origin) at 0.1 uM relative to control
[21] = molecular target: Serine/threonine-protein kinase PLK1 (Homo sapiens) (UniProt P53350); assay: Inhibition of PLK1 (unknown origin) at 0.1 uM relative to control
[22] = molecular target: Protein kinase C delta type (Homo sapiens) (UniProt Q05655); assay: Inhibition of PKCdelta (unknown origin) at 0.1 uM relative to control
[23] = molecular target: Mitogen-activated protein kinase kinase kinase kinase 4 (Homo sapiens) (UniProt O95819); assay: Inhibition of NIK (unknown origin) at 0.1 uM relative to control
[24] = molecular target: Ribosomal protein S6 kinase alpha-1 (Homo sapiens) (UniProt Q15418); assay: Inhibition of Rsk1 (unknown origin) at 0.1 uM relative to control
[25] = molecular target: Casein kinase I isoform delta (Homo sapiens) (UniProt P48730); assay: Inhibition of CK1delta (unknown origin) at 0.1 uM relative to control
[26] = molecular target: Protein kinase C epsilon type (Homo sapiens) (UniProt Q02156); assay: Inhibition of PKCepsilon (unknown origin) at 0.1 uM relative to control
[27] = molecular target: Dual specificity protein kinase CLK3 (Homo sapiens) (UniProt P49761); assay: Inhibition of CLK3 (unknown origin) at 0.1 uM relative to control
[28] = molecular target: cGMP-dependent protein kinase 1 (Homo sapiens) (UniProt Q13976); assay: Inhibition of PKG1alpha (unknown origin) at 0.1 uM relative to control
[29] = molecular target: Receptor tyrosine-protein kinase erbB-2 (Homo sapiens) (UniProt P04626); assay: Inhibition of ErbB2 (unknown origin) at 0.1 uM relative to control
[30] = molecular target: Ribosomal protein S6 kinase alpha-5 (Homo sapiens) (UniProt O75582); assay: Inhibition of MSK1 (unknown origin) at 0.1 uM relative to control
[31] = molecular target: G protein-coupled receptor kinase 6 (Homo sapiens) (UniProt P43250); assay: Inhibition of GRK6 (unknown origin) at 0.1 uM relative to control
[32] = molecular target: Dual specificity tyrosine-phosphorylation-regulated kinase 4 (Homo sapiens) (UniProt Q9NR20); assay: Inhibition of DYRK4 (unknown origin) at 0.1 uM relative to control
[33] = molecular target: Calcium/calmodulin-dependent protein kinase type IV (Homo sapiens) (UniProt Q16566); assay: Inhibition of CamKIV (unknown origin) at 0.1 uM relative to control
[34] = molecular target: Tyrosine-protein kinase FRK (Homo sapiens) (UniProt P42685); assay: Inhibition of Frk (unknown origin) at 0.1 uM relative to control
[35] = molecular target: RAC-beta serine/threonine-protein kinase (Homo sapiens) (UniProt P31751); assay: Inhibition of AKT2 (unknown origin) at 0.1 uM relative to control
[36] = molecular target: Eukaryotic elongation factor 2 kinase (Homo sapiens) (UniProt O00418); assay: Inhibition of eEF-2K (unknown origin) at 0.1 uM relative to control
[37] = molecular target: Dual specificity mitogen-activated protein kinase kinase 2 (Homo sapiens) (UniProt P36507); assay: Inhibition of MEK2 (unknown origin) at 0.1 uM relative to control
Dual specificity mitogen-activated protein kinase kinase 2 (Homo sapiens), sequence (P36507 whole entry): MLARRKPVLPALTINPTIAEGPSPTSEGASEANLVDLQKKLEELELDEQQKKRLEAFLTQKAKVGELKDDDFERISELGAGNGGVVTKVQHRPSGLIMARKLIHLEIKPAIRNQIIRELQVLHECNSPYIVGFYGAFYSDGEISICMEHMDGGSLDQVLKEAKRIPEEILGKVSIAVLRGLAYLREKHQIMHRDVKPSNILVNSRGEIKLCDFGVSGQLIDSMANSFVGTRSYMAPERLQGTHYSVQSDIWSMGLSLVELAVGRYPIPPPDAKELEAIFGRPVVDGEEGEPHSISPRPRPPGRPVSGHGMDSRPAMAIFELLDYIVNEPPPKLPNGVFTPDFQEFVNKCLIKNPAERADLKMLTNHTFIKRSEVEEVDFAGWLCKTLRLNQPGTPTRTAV

Serine/threonine-protein kinase NLK (Homo sapiens), sequence (Q9UBE8 whole entry): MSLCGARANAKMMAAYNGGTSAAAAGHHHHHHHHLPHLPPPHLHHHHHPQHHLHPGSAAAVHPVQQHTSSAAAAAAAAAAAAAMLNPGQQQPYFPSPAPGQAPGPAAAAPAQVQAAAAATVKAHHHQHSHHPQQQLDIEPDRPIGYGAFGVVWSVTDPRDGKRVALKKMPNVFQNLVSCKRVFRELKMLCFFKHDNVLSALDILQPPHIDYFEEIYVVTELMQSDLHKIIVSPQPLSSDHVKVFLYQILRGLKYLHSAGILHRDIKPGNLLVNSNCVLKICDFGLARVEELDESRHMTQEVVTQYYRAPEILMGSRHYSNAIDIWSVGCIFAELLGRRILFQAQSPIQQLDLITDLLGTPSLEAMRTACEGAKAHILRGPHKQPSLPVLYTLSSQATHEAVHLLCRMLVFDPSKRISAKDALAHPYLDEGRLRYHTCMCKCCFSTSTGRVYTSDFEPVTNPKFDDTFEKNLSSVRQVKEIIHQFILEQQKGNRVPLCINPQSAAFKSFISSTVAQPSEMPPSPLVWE
Serine/threonine-protein kinase PLK1 (Homo sapiens), sequence (P53350 whole entry): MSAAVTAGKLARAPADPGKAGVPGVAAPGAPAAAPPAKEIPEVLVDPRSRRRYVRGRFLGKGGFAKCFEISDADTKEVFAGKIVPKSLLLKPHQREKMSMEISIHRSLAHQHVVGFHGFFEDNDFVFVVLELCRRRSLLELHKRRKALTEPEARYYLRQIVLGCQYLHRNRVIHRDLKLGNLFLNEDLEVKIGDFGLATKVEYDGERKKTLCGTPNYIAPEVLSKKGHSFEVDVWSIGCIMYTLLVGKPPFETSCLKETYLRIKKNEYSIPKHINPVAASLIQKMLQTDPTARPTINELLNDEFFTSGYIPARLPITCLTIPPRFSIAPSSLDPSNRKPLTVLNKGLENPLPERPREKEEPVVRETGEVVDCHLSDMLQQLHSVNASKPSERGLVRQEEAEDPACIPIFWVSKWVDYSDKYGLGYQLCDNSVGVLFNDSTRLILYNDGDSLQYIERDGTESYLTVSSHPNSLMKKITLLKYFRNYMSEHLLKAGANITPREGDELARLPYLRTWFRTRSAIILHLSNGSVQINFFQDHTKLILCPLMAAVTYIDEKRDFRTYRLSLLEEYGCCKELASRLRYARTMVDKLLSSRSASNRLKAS
Tyrosine-protein kinase FRK (Homo sapiens), sequence (P42685 whole entry): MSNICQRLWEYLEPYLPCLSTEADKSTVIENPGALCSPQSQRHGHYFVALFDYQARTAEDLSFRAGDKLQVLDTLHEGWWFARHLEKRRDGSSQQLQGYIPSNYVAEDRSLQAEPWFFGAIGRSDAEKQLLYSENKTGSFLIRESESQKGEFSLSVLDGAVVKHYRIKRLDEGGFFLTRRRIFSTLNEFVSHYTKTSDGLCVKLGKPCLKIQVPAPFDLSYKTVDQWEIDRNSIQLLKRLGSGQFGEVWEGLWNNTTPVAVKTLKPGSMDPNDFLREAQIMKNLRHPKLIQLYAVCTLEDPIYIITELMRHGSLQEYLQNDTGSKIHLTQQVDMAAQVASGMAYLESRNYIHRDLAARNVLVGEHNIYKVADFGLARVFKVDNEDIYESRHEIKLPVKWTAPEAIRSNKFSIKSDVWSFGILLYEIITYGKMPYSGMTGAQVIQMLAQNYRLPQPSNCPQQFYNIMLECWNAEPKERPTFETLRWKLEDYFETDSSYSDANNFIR
Dual specificity protein kinase CLK3 (Homo sapiens), sequence (P49761 whole entry, looked up): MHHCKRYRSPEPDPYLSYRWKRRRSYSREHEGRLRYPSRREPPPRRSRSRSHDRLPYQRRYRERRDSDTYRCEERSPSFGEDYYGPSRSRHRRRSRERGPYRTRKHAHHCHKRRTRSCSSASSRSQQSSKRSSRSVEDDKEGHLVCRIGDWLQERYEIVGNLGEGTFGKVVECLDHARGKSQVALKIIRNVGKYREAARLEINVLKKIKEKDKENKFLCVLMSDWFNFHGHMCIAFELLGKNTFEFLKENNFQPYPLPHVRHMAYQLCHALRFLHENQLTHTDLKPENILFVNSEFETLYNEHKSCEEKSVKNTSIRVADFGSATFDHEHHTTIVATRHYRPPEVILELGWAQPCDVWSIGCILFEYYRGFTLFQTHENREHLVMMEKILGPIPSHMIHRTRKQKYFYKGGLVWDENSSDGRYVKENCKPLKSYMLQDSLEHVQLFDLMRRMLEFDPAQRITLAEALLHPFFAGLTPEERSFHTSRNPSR
RAC-beta serine/threonine-protein kinase (Homo sapiens), sequence (P31751 whole entry): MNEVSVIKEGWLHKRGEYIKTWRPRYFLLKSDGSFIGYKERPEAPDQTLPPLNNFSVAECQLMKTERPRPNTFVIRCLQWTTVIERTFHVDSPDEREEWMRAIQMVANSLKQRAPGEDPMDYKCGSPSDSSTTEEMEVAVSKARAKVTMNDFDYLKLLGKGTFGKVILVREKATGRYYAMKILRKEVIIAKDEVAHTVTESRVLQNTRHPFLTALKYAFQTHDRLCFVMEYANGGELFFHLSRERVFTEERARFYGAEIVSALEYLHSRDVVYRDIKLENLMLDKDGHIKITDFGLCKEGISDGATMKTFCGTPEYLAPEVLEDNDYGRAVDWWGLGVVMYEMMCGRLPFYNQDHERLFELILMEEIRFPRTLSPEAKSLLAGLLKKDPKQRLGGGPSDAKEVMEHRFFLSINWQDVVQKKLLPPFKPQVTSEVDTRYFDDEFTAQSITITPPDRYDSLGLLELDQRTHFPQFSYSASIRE
Dual specificity tyrosine-phosphorylation-regulated kinase 4 (Homo sapiens), sequence (Q9NR20 whole entry): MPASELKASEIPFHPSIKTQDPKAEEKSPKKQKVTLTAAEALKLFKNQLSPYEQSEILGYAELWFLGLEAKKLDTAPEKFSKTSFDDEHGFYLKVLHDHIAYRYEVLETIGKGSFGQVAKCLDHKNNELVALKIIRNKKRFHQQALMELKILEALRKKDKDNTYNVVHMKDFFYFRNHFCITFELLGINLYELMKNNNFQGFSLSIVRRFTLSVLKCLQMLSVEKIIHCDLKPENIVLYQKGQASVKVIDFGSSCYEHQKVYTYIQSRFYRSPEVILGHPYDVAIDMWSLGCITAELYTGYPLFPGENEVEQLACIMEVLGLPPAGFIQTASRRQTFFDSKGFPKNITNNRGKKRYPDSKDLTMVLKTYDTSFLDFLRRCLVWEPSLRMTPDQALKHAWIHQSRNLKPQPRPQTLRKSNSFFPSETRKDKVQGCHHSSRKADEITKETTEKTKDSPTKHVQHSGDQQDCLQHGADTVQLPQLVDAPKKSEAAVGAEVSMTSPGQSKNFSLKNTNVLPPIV
G protein-coupled receptor kinase 6 (Homo sapiens), sequence (P43250 whole entry, looked up): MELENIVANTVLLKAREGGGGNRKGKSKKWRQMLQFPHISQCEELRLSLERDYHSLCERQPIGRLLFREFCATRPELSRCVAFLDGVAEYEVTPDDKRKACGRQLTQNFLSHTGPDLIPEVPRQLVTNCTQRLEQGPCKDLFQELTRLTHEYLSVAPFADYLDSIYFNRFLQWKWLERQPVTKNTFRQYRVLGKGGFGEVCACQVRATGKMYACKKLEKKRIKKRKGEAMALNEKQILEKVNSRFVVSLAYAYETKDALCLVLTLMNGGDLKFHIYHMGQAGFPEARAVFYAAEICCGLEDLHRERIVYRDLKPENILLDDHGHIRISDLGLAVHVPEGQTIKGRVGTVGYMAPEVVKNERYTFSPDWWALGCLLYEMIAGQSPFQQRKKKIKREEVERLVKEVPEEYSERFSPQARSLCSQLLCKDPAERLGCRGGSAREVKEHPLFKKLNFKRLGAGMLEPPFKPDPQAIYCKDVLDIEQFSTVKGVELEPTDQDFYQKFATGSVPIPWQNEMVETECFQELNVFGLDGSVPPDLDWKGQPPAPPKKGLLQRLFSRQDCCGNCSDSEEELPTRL
Calcium/calmodulin-dependent protein kinase type IV (Homo sapiens), sequence (Q16566 whole entry): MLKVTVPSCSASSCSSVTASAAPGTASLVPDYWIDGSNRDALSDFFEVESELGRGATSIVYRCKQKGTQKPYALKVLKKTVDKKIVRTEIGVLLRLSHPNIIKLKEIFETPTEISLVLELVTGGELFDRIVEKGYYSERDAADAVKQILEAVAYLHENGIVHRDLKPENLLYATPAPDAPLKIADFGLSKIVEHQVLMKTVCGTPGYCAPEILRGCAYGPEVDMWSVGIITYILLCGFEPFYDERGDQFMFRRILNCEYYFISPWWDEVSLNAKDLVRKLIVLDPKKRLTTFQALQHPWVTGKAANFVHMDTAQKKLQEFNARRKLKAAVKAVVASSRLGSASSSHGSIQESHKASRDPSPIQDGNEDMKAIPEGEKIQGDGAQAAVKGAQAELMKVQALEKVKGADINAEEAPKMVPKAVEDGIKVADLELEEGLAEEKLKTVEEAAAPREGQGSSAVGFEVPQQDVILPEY
Phosphorylase b kinase gamma catalytic chain, liver/testis isoform (Homo sapiens), sequence (P15735 whole entry, canonical isoform): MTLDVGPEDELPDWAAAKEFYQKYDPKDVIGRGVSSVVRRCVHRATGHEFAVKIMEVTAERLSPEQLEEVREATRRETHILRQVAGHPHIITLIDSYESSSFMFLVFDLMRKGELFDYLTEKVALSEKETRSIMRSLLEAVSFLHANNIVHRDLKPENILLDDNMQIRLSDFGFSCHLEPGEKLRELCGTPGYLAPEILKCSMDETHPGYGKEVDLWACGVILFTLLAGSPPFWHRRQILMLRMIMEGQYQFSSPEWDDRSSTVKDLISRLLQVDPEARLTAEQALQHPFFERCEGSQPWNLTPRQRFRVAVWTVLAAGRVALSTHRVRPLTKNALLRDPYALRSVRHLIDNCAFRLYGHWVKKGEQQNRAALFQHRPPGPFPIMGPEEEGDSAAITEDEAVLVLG

inhibition [1]: 13% | inhibition (TAK1/TAB1 (Homo sapiens)): 27.9% | inhibition [2]: 4.1% | inhibition [3]: 4.3% | inhibition [4]: 85.5% | inhibition [5]: 5% | inhibition [6]: 48.2% | inhibition [7]: 38.3%
Compound: CN1CCc2cc(-c3cnc4[nH]cc(C(=O)c5ccccc5Cl)c4c3)ccc2C1

inhibition [8]: 1.7% | inhibition [9]: 2.8% | inhibition [10]: 15.9% | inhibition [11]: 15.1% | inhibition [12]: -2% | inhibition [13]: 3.3% | inhibition [14]: 8.4% | inhibition [15]: 1.9% | inhibition [16]: 17.3% | inhibition [17]: 11.3% | inhibition [18]: 0.5% | inhibition [19]: 8.8% | inhibition [20]: 5.4% | inhibition [21]: -2% | inhibition [22]: 0.5% | inhibition [23]: -0.5% | inhibition [24]: 6.7% | inhibition [25]: 6.6% | inhibition [26]: 8.3% | inhibition [27]: 8.9% | inhibition [28]: 9.3% | inhibition [29]: -5% | inhibition [30]: 4.2% | inhibition [31]: 11.7% | inhibition [32]: -3% | inhibition [33]: -6.6% | inhibition [34]: 13.1% | inhibition [35]: 3.6% | inhibition [36]: 4.3% | inhibition [37]: -0.6%
Compound: COCCNc1nc2ccc(C#CC3(O)CCCCC3)cc2n1-c1ccnc(N)n1
